Patent US10336788B2, “Inhibition of cardiac fibrosis in myocardial infarction” (Moerae Matrix, Inc., priority 2014, dated 2019)
No end group written: not given here.

Tested on: primary cardiac fibroblasts
Assay: Caspase 3/7 activity in primary cardiac fibroblasts challenged with 1% hypoxia
Format: cell-based, rat
Details: 100 μM, 16 and 32 hours of hypoxia
Experimental: H9C2 is a myoblast cell line derived from rat myocardium obtained from ATCC® (CRL-1446, ATCC, Manassas, Va.) and cultured according to the recommended protocols. Briefly, cells were maintained at 37° C. with 5% CO2 in DMEM supplemented with 10% fetal bovine serum and antibiotics (100 U/ml penicillin, […] streptomycin) and split at a ratio of 1:4 using 0.05% trypsin every 36 hours. […]
Cells were rinsed in PMS and grown in DMEM (cat. #11966-025, Gibco) for 2 hours prior to initiating hypoxia (simulated ischemia). […] Three different time points were adopted for each of the three cell lines according to the severity of cell death under hypoxia determined by LDH release: for H9C2 cell line: 8 hr; 16 hr; 24 hr; for HL-1 cell line: 4 hr; 8 hr; 12 hr; for cardiac fibroblast cell line: 16 hr; 32 hr; 48 hr.
Cell death was first determined using an LDH release assay (cat. #630117, Clontech), according to the manufacturer's instructions. […] Caspase 3/7 activity was next determined using a commercial Caspase 3/7 activity kit (Cat. #G8091, Promega, Madison, Wis. 53711) in a 384 well plate (Cat. #781903, Greiner bio-one) according to the manufacturer's instructions. […] The resulting cell lysates (25 μl, with 0.6 ug total protein) and Caspase-Glo 3/7 Reagent were added to each well in a 1:1 ratio and the luminescence was read (CLARIOstar, BMG LABTECH GmbH). […]

Question: With YARAAARQARAKALARQLGVAA [MMI-0100] as the sequence, how does the “caspase 3/7 activity” value read?
Answer: significantly enhanced
